These results are taken from patent publication US20060094783A1 (Tava Pharmaceutical Industries, Ltd., priority 1990, published 2006).

The target in data set [1] is T1, MAO-A (Rattus norvegicus, UniProt P21396).
T1 construct: MAO activity determined in brain and liver; from tissue; host or cells: brain and liver of male Sprague-Dawley-derived rats
T1 sequence (P21396 1-526): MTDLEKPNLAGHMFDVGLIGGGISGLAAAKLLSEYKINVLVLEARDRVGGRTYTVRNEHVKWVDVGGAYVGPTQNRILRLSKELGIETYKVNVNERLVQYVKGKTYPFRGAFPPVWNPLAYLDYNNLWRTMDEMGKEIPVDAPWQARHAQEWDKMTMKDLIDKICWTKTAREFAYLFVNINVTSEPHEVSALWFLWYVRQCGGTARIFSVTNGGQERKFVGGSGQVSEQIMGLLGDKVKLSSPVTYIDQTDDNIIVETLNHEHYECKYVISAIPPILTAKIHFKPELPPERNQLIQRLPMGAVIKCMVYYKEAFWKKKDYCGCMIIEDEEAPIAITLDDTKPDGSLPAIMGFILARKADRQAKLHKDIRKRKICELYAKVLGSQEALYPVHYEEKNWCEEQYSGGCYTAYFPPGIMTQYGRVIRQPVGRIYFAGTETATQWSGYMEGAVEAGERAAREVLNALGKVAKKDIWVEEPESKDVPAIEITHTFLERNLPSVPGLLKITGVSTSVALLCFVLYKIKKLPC
As to the kind of experiment: Rat brain MAO inhibition by propargylamines (Table IA), A form. Format: biochemical. The conditions noted are these: between the two epimers.

The next data set deals with T2, MAO-B (Rattus norvegicus, UniProt P19643).
T2 sequence (P19643 1-520): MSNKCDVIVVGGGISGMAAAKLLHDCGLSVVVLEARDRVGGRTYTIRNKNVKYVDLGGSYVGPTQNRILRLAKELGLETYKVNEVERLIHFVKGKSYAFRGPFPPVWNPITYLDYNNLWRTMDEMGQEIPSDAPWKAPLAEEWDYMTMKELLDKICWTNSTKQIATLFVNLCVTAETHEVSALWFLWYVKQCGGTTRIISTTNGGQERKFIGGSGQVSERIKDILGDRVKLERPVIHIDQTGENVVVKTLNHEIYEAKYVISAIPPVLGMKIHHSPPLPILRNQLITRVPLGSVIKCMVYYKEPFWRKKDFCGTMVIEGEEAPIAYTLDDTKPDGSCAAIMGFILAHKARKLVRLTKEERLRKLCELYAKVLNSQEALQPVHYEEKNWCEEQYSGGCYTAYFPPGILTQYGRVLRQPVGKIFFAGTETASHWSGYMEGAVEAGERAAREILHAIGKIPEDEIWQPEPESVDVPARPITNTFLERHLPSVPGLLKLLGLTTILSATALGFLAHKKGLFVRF
As to the kind of experiment: Inhibition of MAO activity in vivo, acute treatment, MAO-B. More on the design: in a rat brain preparation of MAO; host or cells: rat brain preparation.

Data set [2] concerns the target T1, MAO-A. As to the kind of experiment: Inhibition of MAO activity in vivo, acute treatment, MAO-A. The conditions noted are these: rat.
Data set [3] relates to cardiovascular effects in animals. The conditions noted are these: comparative animal tests; cited from earlier work.
The subject of data set [4] is guinea-pig ileum. As to the kind of experiment: Antagonism of bethanechol-induced (fixed dose) contractions of guinea-pig ileum. The conditions noted are these: bethanechol 0.8 μM.
For data set [5], the system named is maximal electroshock seizures in rats. Nature of the data set: Maximal electroshock test (MES test) in rats. The class given is in vivo, rat. The conditions noted are these: p.o., 50 mg/kg. An excerpt: (§1) The MES test is a classical model to indicate efficacy for partial and generalized seizures in humans. The agents' mechanism of action is via their ability to prevent the spread of seizures. Some agents, however, that prevent seizure spread have the side effect of lowering seizure threshold. These agents therefore have both proconvulsive and anticonvulsive side effects.

Data set [6] deals with maximal electroshock seizures in mice. As to the kind of experiment: Maximal electroshock test (MES test) in mice. The conditions noted are these: i.p. Format: in vivo, mouse.
Text: as §1
For orientation: Protection in the maximal electroshock model is a classic sign of anticonvulsant action.

The test system of a further data set is rabbit jejunum. Nature of the data set: Tyramine potentiation in isolated jejunum preparation. On the procedure:
Peripheral effects of the hydrochloride salts of the enantiomers of PAI were determined in isolated rabbit or guinea-pig small intestine. These observations provide useful information on their relative peripheral side effects in humans. The first point of contact of the subject with an orally administered drug is the gastrointestinal tract where concentrations of the drug are much higher than after absorption and distribution. In the case of PAI hydrochloride (Mw=208), a 10 mg oral dose contained in a liquid volume of about 100 ml would be equivalent to a concentration of about 0.5 mM. In contrast, the therapeutic plasma concentration of (R)-PAI hydrochloride is in the nanomolar range.

The test system of data set [7] is guinea-pig ileum. As to the kind of experiment: Antagonism of bethanechol-induced contractions of guinea pig ileum in presence of 400 μM PAI HCl enantiomer. As to conditions: 400 μM enantiomer.
The subject of data set [8] is guinea-pig ileum. As to the kind of experiment: Antagonism of histamine-induced contractions of guinea-pig ileum. As to conditions: histamine 40 nM.
The subject of data set [9] is MAO. As to conditions: inhibiting oxidative deamination of tyramine, rat brain homogenate; cited from earlier work.
For data set [10], the system named is MAO. The conditions noted are these: rat liver homogenate; cited from earlier work.
Data set [11] has as its system MPTP-induced striatal DA and DOPAC depletions in mice. As to the kind of experiment: Suppression of MPTP-induced dopaminergic toxicity (striatal DA and DOPAC). The class given is in vivo, mouse. The conditions noted are these: PAI […] i.p., deprenyl 5 mg/kg i.p., 5 days.
The test system of data set [12] is Metrazol seizure threshold in mice. As to conditions: Kupferberg 1989; cited from earlier work.
The mark [13] stands for this setting: pretreatment 1 h before MPTP 30 mg/kg s.c.

Structures can show the parent of a compound that is named as a salt. Bounds are passed on as bounds.

With `C#CCNC1CCCc2ccccc21` (racemic) [Example 1-PAT, N-propargyl-1-aminotetralin], the “Relative potency A (+/− or R/S)” value on MAO-A [1] came out at 4.
For `C#CCNC1CCc2ccccc21` (racemic) [Rac, N-propargyl-1-aminoindan], the “IC-50 MAO-B” value on MAO-B (I.P., brain, 1 h after dose) was determined as 0.22 mg/kg; on MAO-B (I.P., liver, 1 h after dose), 0.11 mg/kg; at MAO-B (P.O., liver, 2 h after dose), 0.09 mg/kg. The “IC-50 MAO-A” value at MAO-A [2] (I.P., liver, 1 h after dose) is recorded as 5 mg/kg; against MAO-A [2] (P.O., brain, 2 h after dose), more than 5 mg/kg; against MAO-A [2] (P.O., liver, 2 h after dose) it was more than 5 mg/kg. The blood pressure entry in data set [3] is listed as “does not increase blood pressure”. In addition, in [3], the tachycardia entry is listed as “no significant tachycardia”.
Consider `C#CCN[C@@H]1CCc2ccccc21.Cl` [(R)-PAI HCl, R-(+)-N-Propargyl-1-aminoindan hydrochloride], for which the Percent relaxation with guinea-pig ileum [4] (PAI concentration 20 μM) was 25; with guinea-pig ileum [4] (PAI concentration 60 μM), 25-50; with guinea-pig ileum [4] (PAI concentration 100 μM) it was 50-70; in the data set on guinea-pig ileum [4] (PAI concentration 300 μM), 100. The “animals protected from seizures” value in [5] is listed as “three out of four”.
In the case of `C#CCN[C@H]1CCc2ccccc21` [(S)-PAI HCl, S-(−)-N-Propargyl-1-aminoindan hydrochloride], the Percent relaxation in the data set on guinea-pig ileum [4] (PAI concentration 20 μM) is on record as 40-50; in the data set on guinea-pig ileum [4] (PAI concentration 60 μM), 60-70; with guinea-pig ileum [4] (PAI concentration 100 μM), 100; in the data set on guinea-pig ileum [4] (PAI concentration 300 μM) it was 100; in the data set with rabbit jejunum (PAI HCl enantiomer alone, 0.2-4.0 μM), 0; with rabbit jejunum (tyramine 40 μM after 0.2 μM PAI HCl enantiomer), 0. Also, the Percent relaxation is listed as 35 with rabbit jejunum (tyramine 40 μM after 2 μM PAI HCl enantiomer); 33-50 with rabbit jejunum (tyramine 40 μM after 40 μM PAI HCl enantiomer); 11 with guinea-pig ileum [8] (PAI concentration 2 μM); 15 in the data set with guinea-pig ileum [8] (PAI concentration 4 μM); 30 with guinea-pig ileum [8] (PAI concentration 10 μM); 20 with guinea-pig ileum [8] (PAI concentration 20 μM). The Percent relaxation in the data set with guinea-pig ileum [8] (PAI concentration 30 μM) was determined as 33; in the data set on guinea-pig ileum [8] (PAI concentration 40 μM), 36; in the data set with guinea-pig ileum [8] (PAI concentration 100 μM) it was 71; in the data set with guinea-pig ileum [8] (PAI concentration 200 μM), 90; with guinea-pig ileum [8] (PAI concentration 400 μM) it was 98; in the data set with guinea-pig ileum [8] (PAI concentration 1000 μM), 100. Also, in data set [6], the ED50 anticonvulsant activity is recorded as 57 mg/kg. Besides, the “animals protected from seizures” value in [5] is given as “Four out of four”. Besides, the gram-tension in the data set on guinea-pig ileum [7] (bethanechol 0.8 μM) is given as 0 gram-tension; in the data set with guinea-pig ileum [7] (bethanechol 2 μM) it was 0 gram-tension; in the data set on guinea-pig ileum [7] (bethanechol 4 μM), 0 gram-tension; in the data set with guinea-pig ileum [7] (bethanechol 8 μM), 0.6 gram-tension; in the data set on guinea-pig ileum [7] (bethanechol 40 μM), 1.7 gram-tension.
For the compound `C#CCN(C)[C@H](C)Cc1ccccc1` [DEPRENYL R, reference compound], the “times more potent than the S-(+) enantiomer” value in the data set on MAO [9] is 500 times. Also, the “times as potent as the S enantiomer” value with MAO [10] is given as 15 times. The entries for the “striatal DA” value in data set [11] (drug alone) and in [11] (setting [13]) were 170.6 ± 7.1 ng/mg protein and 197.0 ± 8.0 ng/mg protein, respectively. Further, the “striatal DOPAC” value in [11] (drug alone) is 5.6 ± 0.3 ng/mg protein; in data set [11] (setting [13]), 6.4 ± 0.5 ng/mg protein.
`C#CCN(C)C1CCCc2ccccc21` (stereo not drawn) [Example 2-MPAI, N-Methyl-N-propargyl-1-aminotetralin]: the “Relative potency A (+/− or R/S)” value on MAO-A [1] stood at 3.
With `NC(=O)N1c2ccccc2C=Cc2ccccc21` [carbamazepine], the “effect on time to first focal seizure and onset of clonus (proconvulsive activity)” value in [12] was “do not show this effect”.
For the compound `O=C1NC(=O)C(c2ccccc2)(c2ccccc2)N1` [phenytoin], the “effect on time to first focal seizure and onset of clonus (proconvulsive activity)” value in data set [12] is “do not show this effect”.
